Assay results reported in article PMC11211329, “Phage-encoded bismuth bicycles enable instant access to targeted bioactive peptides” (Communications Chemistry, 2024).
Several values for one entry are separate records, joined by “and”; a condition that tells them apart may be missing. Equal entries are not always repeated.

Target: T1, streptavidin (Streptomyces avidinii, UniProt P22629)
T1 construct: purchased New England Biolabs
Experiment: biochemical
Format: binding
Details: for affinity towards streptavidin (in words) / Response: SPR
Procedure: SPR measurements were performed with 20 mM HEPES–KOH pH 7.4, 150 mM NaCl, 0.5 mM TCEP, 0.05% (v/v) polysorbate 20 as running buffer. For each experiment, 100–150 μg streptavidin in 10 mM sodium acetate pH 3.9 buffer was freshly immobilised on a sensor chip flow-cell using EDC/NHS chemistry at 25 °C in absence of TCEP. All binding experiments were conducted at 20 °C in single-cycle kinetics mode (Fig. 4, Supplementary Figs. 17, 18, Supplementary Data 2).
SPR experiments were performed on a Biacore 8K (Cytiva, USA) using a CM5 chip (Cytiva, 29104988, USA), onto which streptavidin (New England Biolabs, USA) was freshly immobilised using an amine coupling kit (Cytiva, USA) for each individual experiment. The instrument was operated using Biacore Insight 5 software (Cytiva, USA). The data were plotted and analysed in GraphPad Prism 10 (Dotmatics, USA) using the non-linear fit ‘one site – specific binding’ (Supplementary Equation 2). KD values of duplicate measurements are represented as the mean value ± standard deviation.
Supplementary Equation 2.
X = analyte concentration [µM]
RUmax = maximum response [RU]
KD = dissociation constant [µM]

T1 sequence (P22629 25-183): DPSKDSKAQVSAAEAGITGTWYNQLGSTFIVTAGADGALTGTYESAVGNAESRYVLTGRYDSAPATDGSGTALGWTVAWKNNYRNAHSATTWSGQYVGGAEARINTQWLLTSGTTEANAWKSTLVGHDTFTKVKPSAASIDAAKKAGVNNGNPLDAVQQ

| SMILES | Kd | affinity towards streptavidin (in words) | Response (0.390625 μM peptide) | Response (0.78125 μM peptide) | Response (1.5625 μM peptide) | Response (3.125 μM peptide) | Response (6.25 μM peptide) | Response (12.5 μM peptide) | Response (25 μM peptide) | Response (50 μM peptide) | more active than linear counterpart (ratio of KD, bicycle vs linear peptide) | Response (100 μM peptide) | Response (200 μM peptide) |
| --- | --- | --- | --- | --- | --- | --- | --- | --- | --- | --- | --- | --- | --- |
| C[C@H](N)C(=O)N[C@H]1CS[As]2SC[C@@H](C(N)=O)NC(=O)[C@H](C)NC(=O)[C@@H]3CCCN3C(=O)[C@H](CCC(=O)O)NC(=O)[C@H]([C@@H](C)O)NC(=O)[C@H](CS2)NC(=O)[C@H](CC(N)=O)NC(=O)[C@H](CCC(N)=O)NC(=O)[C@@H]2CCCN2C(=O)[C@H](Cc2c[nH]cn2)NC1=O [3a] | 11.7 µM | micromolar affinity | 3.2004 RU and 3.5032 RU | 4.9583 RU and 6.3102 RU | 9.0442 RU and 11.2377 RU | 17.2093 RU and 20.7499 RU | 31.5997 RU and 35.2522 RU | 49.5222 RU and 52.7774 RU | 65.4485 RU and 68.0889 RU | 75.5589 RU and 77.8751 RU | approximately 80 times | – | – |
| C[C@H](N)C(=O)N[C@H]1C[S][Bi]2[S]C[C@@H](C(N)=O)NC(=O)[C@H](C)NC(=O)[C@@H]3CCCN3C(=O)[C@H](CCC(=O)O)NC(=O)[C@H]([C@@H](C)O)NC(=O)[C@H](C[S]2)NC(=O)[C@H](CC(N)=O)NC(=O)[C@H](CCC(N)=O)NC(=O)[C@@H]2CCCN2C(=O)[C@H](Cc2c[nH]cn2)NC1=O [3b] | – | two-digit micromolar dissociation constants | – | 7.812 RU | 10.9116 RU | 21.8994 RU | 58.4112 RU | 130.364 RU | 206.319 RU | 242.538 RU | – | 254.246 RU | 258.218 RU |
| CC(C)[C@@H]1NC(=O)[C@H](CCC(N)=O)NC(=O)[C@@H]2CCCN2C(=O)[C@H](Cc2c[nH]cn2)NC(=O)[C@@H](NC(=O)[C@H](C)N)CS[As]2SC[C@@H](C(N)=O)NC(=O)[C@H](CCC(=O)O)NC(=O)[C@H]([C@@H](C)O)NC(=O)[C@@H]3CCCN3C(=O)[C@H](CO)NC(=O)[C@H](CS2)NC1=O [4a] | 42.8 ± 3.5 µM | micromolar affinity | 3.3313 RU and 3.9342 RU | 3.4046 RU and 4.4109 RU | 4.0632 RU and 5.3459 RU | 6.3333 RU and 7.9821 RU | 11.621 RU and 13.3151 RU | 22.2246 RU and 23.8712 RU | 39.0098 RU and 40.7076 RU | 57.9196 RU and 59.6228 RU | – | 73.3509 RU and 75.0552 RU | – |
| CSCC[C@@H]1NC(=O)[C@@H]2CCCN2C(=O)[C@H](Cc2c[nH]cn2)NC(=O)[C@H](CO)NC(=O)[C@@H](NC(=O)[C@H](C)N)C[S][Bi]2[S]C[C@@H](C(N)=O)NC(=O)[C@@H]3CCCN3C(=O)[C@H](Cc3ccccc3)NC(=O)CNC(=O)[C@H](CCC(=O)O)NC(=O)[C@H](C[S]2)NC1=O [1b] | – | micromolar affinity | 6.1348 RU and 7.3042 RU | 7.9335 RU and 9.6048 RU | 11.7844 RU and 13.9912 RU | 18.5476 RU and 21.5419 RU | 29.9992 RU and 34.3112 RU | 48.2716 RU and 55.717 RU | 75.0467 RU and 86.4584 RU | 95.3416 RU and 109.542 RU | – | 110.889 RU and 126.3 RU | – |
| CC(C)[C@@H]1NC(=O)[C@H](CCC(N)=O)NC(=O)[C@@H]2CCCN2C(=O)[C@H](Cc2c[nH]cn2)NC(=O)[C@@H](NC(=O)[C@H](C)N)C[S][Bi]2[S]C[C@@H](C(N)=O)NC(=O)[C@H](CCC(=O)O)NC(=O)[C@H]([C@@H](C)O)NC(=O)[C@@H]3CCCN3C(=O)[C@H](CO)NC(=O)[C@H](C[S]2)NC1=O [4b] | – | two-digit micromolar dissociation constants | – | 5.1388 RU | 8.1368 RU | 20.2314 RU | 72.2878 RU | 222.296 RU | 413.089 RU | 508.05 RU | – | 531.655 RU | 538.328 RU |
